# Experimental data as given in US9701670B2, “Pyrazolyl-ureas as kinase inhibitors” (RESPIVERT LIMITED, priority 2013, dated 2017).
# What was measured:
# [1] = test system: Differentiated U937 cells; experiment: (l) Cell viability: MTT assay; format: cell-based, human; details: 1 μg/mL
# Outline: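 MTT read-out (1 h, absorbance 550 nm) on d-U937 cells after pre-incubation with 1 or 10 μg/mL compound under two regimes: 4 h, 5% FCS, or 24 h, 10% FCS RPMI1640. Values are percent loss of viability relative to vehicle (0.5% DMSO), so increases are reported as negative.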
# [2] = molecular target: T1, p38 MAPKα isoform (MAPK14) (Homo sapiens (Human), UniProt Q16539); experiment: p38 MAPKα enzyme inhibition (FRET, Z-LYTE), Method 1; format: biochemical; details: Method 1 (Table 4a1)
# [3] = molecular target: T1, p38 MAPKα isoform (MAPK14); experiment: p38 MAPKα enzyme inhibition (FRET, Z-LYTE), Method 2; format: biochemical; details: Method 2, different laboratory (Table 4a2)
# Syk = Syk (Homo sapiens (Human), UniProt P43405); experiment: Syk enzyme inhibition (FRET, Z-LYTE); format: biochemical; details: different laboratory (Table 4a2)
# Protocol: The enzyme inhibitory activities of compounds disclosed herein are determined by FRET using synthetic peptides labelled with both donor and acceptor fluorophores (Z-LYTE, Invitrogen Ltd., Paisley, UK).
# The relevant enzyme (3000 ng/mL or 2000 ng/mL respectively, 2.5 μL) is incubated with the test compound (either 4 μg/mL, 0.4 μg/mL, 0.04 μg/mL, or 0.004 μg/mL, 2.5 μL each) for 2 hr at RT. The FRET peptides (8 μM, 2.5 μL), and appropriate ATP solutions (2.5 μL, 800 μM for c-Src, and 60 μM ATP for Syk) are then added to the enzymes/compound mixtures and incubated for 1 hr. Development reagent (protease, 5 μL) is added for 1 hr prior to detection in a fluorescence microplate reader (Varioskan® Flash, ThermoFisher Scientific).
# In all cases, the site-specific protease cleaves non-phosphorylated peptide only and eliminates the FRET signal. Phosphorylation levels of each reaction are calculated using the ratio of coumarin emission (donor) over fluorescein emission (acceptor), for which high ratios indicate high phosphorylation and low ratios indicate low phosphorylation levels.
# Balb/c mice = experiment: (A) LPS-induced neutrophil accumulation in mice; format: in vivo, mouse; details: mice, test substance at 0.2 mg/mL, dosed 8 hr pre-LPS challenge; for Neutrophil numbers in BAL: +/−SEM, N = 8
# Protocol: […] At T=0, mice are placed into an exposure chamber and exposed to LPS (7.0 mL, 0.5 mg/mL solution in PBS) for 30 min). After a further 8 hr the animals are anesthetized, their tracheas cannulated and BALF extracted by infusing and then withdrawing from their lungs 1.0 mL of PBS via the tracheal catheter. Total and differential white cell counts in the BALF samples are measured using a Neubaur haemocytometer. Cytospin smears of the BALF samples are prepared by centrifugation at 200 rpm for 5 min at RT and stained using a DiffQuik stain system (Dade Behring). Cells are counted using oil immersion microscopy. Data for neutrophil numbers in BAL are shown as mean±S.E.M. (standard error of the mean). The percentage inhibition of neutrophil accumulation is calculated for each treatment relative to vehicle treatment.
# [4] = test system: β-catenin in d-U937 cells; experiment: (m) Accumulation of β catenin in d-U937 cells; format: cell-based, human
# Outline: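 PMA-differentiated U937 macrophage-type cells (100 ng/mL, 48–72 hr) were exposed to test compound or vehicle for 18 hr, then fixed. β-catenin was measured by cell ELISA (HRP/TMB, OD450-655) and normalised to crystal violet OD595. Signals below 15% of the standard control were designated "-ve".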
# HRV16 = experiment: (j) HRV16 induced CPE in MRC5 cells; format: cell-based; details: HRV-16
# Protocol: The supernatants are aspirated, and then fresh media added followed by incubation for 4 days. Where appropriate, cells are pre-incubated with compound or DMSO for 2 hr, and the compounds and DMSO added again after washout of the virus.
# After washing, 1% SDS in distilled water (100 μL) is added to each well, and the plates are shaken lightly for 1-2 hr prior to reading the absorbance at 660 nm. The percentage inhibition for each well is calculated. The IC50 value is calculated from the concentration-response curve generated by the serial dilutions of the test compounds.
# HCK = experiment: Enzyme binding assay (Kinomescan)
# Protocol: These assays were conducted by DiscoverX (formerly Ambit; San Diego, Calif.). The percentage inhibition produced by incubation with a test compound is calculated relative to the non-inhibited control.
# T1 sequence (Q16539 whole entry, canonical isoform): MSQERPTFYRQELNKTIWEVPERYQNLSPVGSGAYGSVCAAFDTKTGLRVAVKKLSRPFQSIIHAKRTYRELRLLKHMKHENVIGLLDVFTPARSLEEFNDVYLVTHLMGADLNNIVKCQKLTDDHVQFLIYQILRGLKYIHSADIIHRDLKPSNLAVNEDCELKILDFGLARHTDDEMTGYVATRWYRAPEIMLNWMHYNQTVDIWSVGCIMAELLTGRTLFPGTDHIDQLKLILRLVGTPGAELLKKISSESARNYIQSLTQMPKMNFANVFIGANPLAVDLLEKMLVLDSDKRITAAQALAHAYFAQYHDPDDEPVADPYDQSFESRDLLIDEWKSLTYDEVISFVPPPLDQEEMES
IC50 [2],IC50 [3],IC50 (Syk),% Inhibition of kinase binding at 500 nM HCK (HCK),Structure (SMILES),Cell viability at time point in d-U937 cells 4 h [1],Cell viability at time point in d-U937 cells 24 h [1],% inhibition of neutrophil numbers in BAL (Balb/c mice),Neutrophil numbers in BAL (Balb/c mice),"β-catenin inductive effect relative to the effect produced by the Reference Compound at 1 μg/mL ([4]; test concentration of 10 μg/mL, found to be negative)",IC50 (HRV16),% β-catenin induction ([4]; 1 μg/mL test compound)
49 nM,174 nM,43 nM,,"COc1cc(Nc2nccc(Oc3ccc(NC(=O)Nc4cc(C(F)(F)C(F)(F)F)nn4-c4ccc(C)cc4)c4ccccc34)n2)cc(C(=O)NCCN2CCOCC2)c1 [Example 9, 3-Methoxy-N-(2-morpholinoethyl)-5-((4-((4-(3-(3-(perfluoroethyl)-1-(p-tolyl)-1H-pyrazol-5-yl)ureido)naphthalen-1-yl)oxy)pyrimidin-2-yl)amino)benzamide]","−ve (−ve and +ve indicate that the value is below and above respectively, the no significant effect threshold, defined as 30% inhibition at 1 μg/mL at the time point indicated.)","−ve (−ve and +ve indicate that the value is below and above respectively, the no significant effect threshold, defined as 30% inhibition at 1 μg/mL at the time point indicated.)",51%,8.0 ± 1.6 ×10^5/mL,less than 15%,,
2 nM,37 nM,,,"COc1ccc(-n2nc(C(C)C)cc2NC(=O)Nc2ccc(Oc3ccnc(Nc4cc(OC)cc(C(=O)NCCN5CCOCC5)c4)n3)c3ccccc23)cc1 [Example 53, 3-((4-((4-(3-(3-isopropyl-1-(4-methoxyphenyl)-1H-pyrazol-5-yl)ureido)naphthalen-1-yl)oxy)pyrimidin-2-yl)amino)-5-methoxy-N-(2-morpholinoethyl)benzamide]","−ve (−ve and +ve indicate that the value is below and above respectively, the no significant effect threshold, defined as 30% inhibition at 1 μg/mL at the time point indicated.)","−ve (−ve and +ve indicate that the value is below and above respectively, the no significant effect threshold, defined as 30% inhibition at 1 μg/mL at the time point indicated.)",,,,2 nM,
,,,100%,"COCC(=O)Nc1cc(Oc2ccc(NC(=O)Nc3cc(C(C)(C)C)nn3-c3ccc(C)cc3)c3ccccc23)ccn1 [Reference Compound, N-(4-(4-(3-(3-tert-butyl-1-p-tolyl-1H-pyrazol-5-yl)ureido)naphthalen-1-yloxy)pyridin-2-yl)-2-methoxyacetamide, reference compound]","−ve (−ve and +ve indicate that the value is below and above respectively, the no significant effect threshold, defined as 30% inhibition at 1 μg/mL at the time point indicated.)","+ve (−ve and +ve indicate that the value is below and above respectively, the no significant effect threshold, defined as 30% inhibition at 1 μg/mL at the time point indicated.)",60%,5.6 ± 0.86 ×10^5/mL,,,208%
